According to patent US20240384268A1, “Oligonucleotides” (Hudson Institute of Medical Research, priority 2021, published 2024):
In the oligonucleotide strings, read from the 5' end, every base follows the letter of its sugar. An asterisk marks phosphorothioate; unmarked linkages are phosphodiester. Other units and linkages are bracketed, terminal groups are in braces. A string of capitals states the bases alone. d = 2'-deoxy (DNA); m = 2'-O-methyl

Molecular target: T1, human TLR9 (Homo sapiens, UniProt Q9NR96)
T1 construct: HA; host or cells: 293XL-hTLR9-HA (HEK293)
T1 sequence (Q9NR96 26-1032): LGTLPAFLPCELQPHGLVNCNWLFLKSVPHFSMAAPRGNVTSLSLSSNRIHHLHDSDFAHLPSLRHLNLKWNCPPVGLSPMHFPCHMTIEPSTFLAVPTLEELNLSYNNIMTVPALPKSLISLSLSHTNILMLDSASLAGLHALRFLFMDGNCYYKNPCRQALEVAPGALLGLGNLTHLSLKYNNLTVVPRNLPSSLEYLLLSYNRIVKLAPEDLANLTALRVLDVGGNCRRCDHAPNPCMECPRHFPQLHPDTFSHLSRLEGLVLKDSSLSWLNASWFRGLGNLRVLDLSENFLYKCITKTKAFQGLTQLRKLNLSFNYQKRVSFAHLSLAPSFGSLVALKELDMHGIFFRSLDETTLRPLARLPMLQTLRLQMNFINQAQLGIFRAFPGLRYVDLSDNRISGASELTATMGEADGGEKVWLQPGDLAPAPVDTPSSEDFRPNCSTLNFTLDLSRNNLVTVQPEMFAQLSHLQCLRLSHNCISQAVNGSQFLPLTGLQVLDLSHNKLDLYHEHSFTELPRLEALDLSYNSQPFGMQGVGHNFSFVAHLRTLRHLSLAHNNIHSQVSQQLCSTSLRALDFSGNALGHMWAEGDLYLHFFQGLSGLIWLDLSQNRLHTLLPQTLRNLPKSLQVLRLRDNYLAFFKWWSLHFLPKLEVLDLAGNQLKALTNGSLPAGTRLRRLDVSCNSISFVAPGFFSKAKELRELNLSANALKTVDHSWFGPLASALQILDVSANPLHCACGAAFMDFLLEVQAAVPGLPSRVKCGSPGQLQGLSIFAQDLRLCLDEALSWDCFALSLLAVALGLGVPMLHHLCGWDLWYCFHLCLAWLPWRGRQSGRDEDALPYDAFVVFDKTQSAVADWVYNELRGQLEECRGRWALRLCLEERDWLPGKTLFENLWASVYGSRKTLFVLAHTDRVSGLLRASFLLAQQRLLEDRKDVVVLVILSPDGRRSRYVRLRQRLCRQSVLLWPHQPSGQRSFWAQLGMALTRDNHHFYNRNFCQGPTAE
Assay: HEK-TLR9 NF-κB-luciferase reporter, ODN2006 stimulation
Assay type: cell-based
Conditions: for TLR9 100 nM: MOE-modified ASO at 100 nM; for TLR9 100 nM / TLR9 500 nM: averaged NF-κB-Luciferase relative to ODN2006 condition; for TLR9 500 nM: MOE-modified ASO at 500 nM; for TLR9-500 nM: averaged NF-κB-Luciferase relative to ODN2006: HEK-TLR9, 500 nM ASO 45 min, then 200 nM ODN2006 overnight, percentage of ODN2006 only

| Substance | TLR9 100 nM | TLR9 500 nM | TLR9-500 nM: averaged NF-κB-Luciferase relative to ODN2006 [%] |
| --- | --- | --- | --- |
| ATGCCATCCACTTGATAGGC (antisense; 2'-MOE modified, pattern not given here) [EGFR-2874 MOE] | 0.712 | 0.589 | – |
| mU*mU*mA*mA*mA*T*A*A*T*C*T*A*G*T*T*mU*mG*mA*mA*mG (UUAAATAATCTAGTTUGAAG; sugars from the 5' end m5 d10 m5, all phosphorothioate, methylation of C not given here) [[CDKN2B-AS1]132] | – | – | 98.18 |
| mG*mA*mU*mU*mA*A*A*A*C*A*G*A*T*T*A*mA*mU*mA*mC*mA (mG*mA*mU*mU*mA*dA*dA*dA*dC*dA*dG*dA*dT*dT*dA*mA*mU*mA*mC*mA) [[CDKN2B-AS1]1773] | – | – | 44.97 |
| mA*mA*mG*mG*mU*G*G*C*C*A*C*A*G*G*C*mA*mA*mC*mG*mU (mA*mA*mG*mG*mU*dG*dG*dC*dC*dA*dC*dA*dG*dG*dC*mA*mA*mC*mG*mU; antisense) [[CDKN2B-AS1]2198] | – | – | 84.28 |
| GGGTATCGAAAGAGTCTGGA (antisense; 2'-MOE modified, pattern not given here) [EGFR-3908 MOE] | 0.349 | 0.203 | – |
| TGGCAGGCTCAGTGATGTCT (antisense; 2'-MOE modified, pattern not given here) [CTNN2B-1642 MOE] | 0.722 | 0.479 | – |
| mA*mA*mA*mA*mG*A*T*T*A*T*C*T*T*C*T*mU*mU*mU*mA*mA (AAAAGATTATCTTCTUUUAA; sugars from the 5' end m5 d10 m5, all phosphorothioate, methylation of C not given here) [[CDKN2B-AS1]2133] | – | – | 80.95 |
| TTTGCACACTTCGTACCCAA (antisense; 2'-MOE modified, pattern not given here) [CAMSAP1-4916 MOE] | 0.735 | 0.514 | – |
| mU*mG*mA*mC*mA*T*T*T*C*G*T*G*G*C*T*mC*mC*mU*mA*mC (mU*mG*mA*mC*mA*dT*dT*dT*dC*dG*dT*dG*dG*dC*dT*mC*mC*mU*mA*mC; antisense) [[LINC-PINT]523 KL] | – | – | 118.29 |
| mA*mA*mA*mG*mA*T*T*A*T*C*T*T*C*T*T*mU*mU*mA*mA*mU (mA*mA*mA*mG*mA*dT*dT*dA*dT*dC*dT*dT*dC*dT*dT*mU*mU*mA*mA*mU) [[CDKN2B-AS1]2132] | – | – | 63.14 |
| mC*mC*mC*mU*mA*A*T*G*C*T*T*T*C*C*T*mC*mU*mC*mC*mA (mC*mC*mC*mU*mA*dA*dT*dG*dC*dT*dT*dT*dC*dC*dT*mC*mU*mC*mC*mA; antisense) [[LINC-PINT1877 KL] | – | – | 86.47 |
| mU*mU*mA*mG*mC*T*C*C*T*T*G*C*C*T*C*mG*mU*mU*mC*mC (mU*mU*mA*mG*mC*dT*dC*dC*dT*dT*dG*dC*dC*dT*dC*mG*mU*mU*mC*mC; antisense) [[LINC-PINT] 1222] | – | – | 78.17 |
| TCCGGCCTCGGAAGCTCTCT (antisense; 2'-MOE modified, pattern not given here) [MB21D1-168 MOE] | 0.242 | 0.000 | – |
| mG*mG*mA*mU*mU*A*A*A*A*C*A*G*A*T*T*mA*mA*mU*mA*mC (GGAUUAAAACAGATTAAUAC; sugars from the 5' end m5 d10 m5, all phosphorothioate, methylation of C not given here) [[CDKN2B-AS1]1774] | – | – | 27.79 |
| mC*mA*mU*mC*mC*C*T*T*C*T*G*C*T*G*C*mC*mA*mA*mG*mC (mC*mA*mU*mC*mC*dC*dT*dT*dC*dT*dG*dC*dT*dG*dC*mC*mA*mA*mG*mC; antisense) [[LINC-PINT]98] | – | – | 65.09 |
| CGGCATCCACCACGTCGTCC (antisense; 2'-MOE modified, pattern not given here) [EGFR-3267 MOE] | 0.449 | 0.373 | – |
| mU*mG*mG*mC*mG*T*A*G*T*T*T*C*T*C*T*mU*mC*mC*mU*mC (mU*mG*mG*mC*mG*dT*dA*dG*dT*dT*dT*dC*dT*dC*dT*mU*mC*mC*mU*mC; antisense) [[LINC-PINT]937.1] | – | – | 79.89 |
| mC*mC*mU*mU*mC*T*C*T*C*T*G*GT*C*C*mC*mA*mU*mC*mC (CCUUCTCTCTGGTCCCAUCC; antisense; chemistry not fully specified) [[LINC-PINT]113] | – | – | 55.47 |
| mG*mU*mC*mU*mC*C*T*C*C*A*C*A*C*C*C*mU*mU*mC*mU*mC (mG*mU*mC*mU*mC*dC*dT*dC*dC*dA*dC*dA*dC*dC*dC*mU*mU*mC*mU*mC; antisense) [[LINC-PINT]126] | – | – | 77.09 |
| mC*mU*mU*mU*mA*T*A*T*T*A*C*A*A*A*G*mC*mU*mA*mC*mU (mC*mU*mU*mU*mA*dT*dA*dT*dT*dA*dC*dA*dA*dA*dG*mC*mU*mA*mC*mU; antisense) [[LINC-PINT]2755] | – | – | 84.43 |
| mA*mA*mA*mU*mG*T*C*C*T*G*G*C*C*C*T*mC*mA*mC*mU*mG (mA*mA*mA*mU*mG*dT*dC*dC*dT*dG*dG*dC*dC*dC*dT*mC*mA*mC*mU*mG) [[LINC-PINT]148.1] | – | – | 46.72 |
| mA*mU*mG*mA*mC*A*T*T*T*C*G*T*G*G*C*mU*mC*mC*mU*mA (mA*mU*mG*mA*mC*dA*dT*dT*dT*dC*dG*dT*dG*dG*dC*mU*mC*mC*mU*mA) [[LINC-PINT]524.1] | – | – | 107.12 |
